# Reference: US20160168540A1, “COMPOSITION FOR MAINTAINING PLATELET FUNCTION” (KYOTO UNIVERSITY, priority 2013, published 2016)
# Biological target: T1, TACE (ADAM17) (Homo sapiens, UniProt P78536)
# T1 construct: made in house; host or cells: mammalian cells or insect cells
# Experiment: TACE (ADAM17) inhibition test
# Format: biochemical
# Settings: fluorescent synthetic substrate, 37° C. for 1.5 hours; read-out: TACE IC50
# Excerpt: The nucleotide sequence of TACE has been reported by Moss et al. (Moss, M. L. et al., Nature 1997, vol. 385, pp. 733-736). Based on this information, the cDNA of TACE was obtained according to the prescribed method from THP-1 cells or the like, and then incorporated the cDNA into an expression vector. Next, this vector was transformed into mammalian cells or insect cells, and TACE protein was expressed. The TACE protein was isolated, and used as an enzyme. Further, a fluorescent synthetic substrate Nma(N-methylanthranilic acid)-Leu-Ala-Gln-Ala-Val-Arg-Ser-Ser-Lys(Dnp(dinitrophenyl))-D-Arg-NH2 including the TACE-cleaved sequence of a membrane-bound TNF was used as a substrate. The enzyme reaction was carried out by adding 1.8 μL of a solution of the test substance to 90 μL of a fluorescent synthetic substrate prepared with an assay buffer B (50 mM tris-hydrochloric acid buffer (pH 7.5) including 200 mM sodium chloride, 5 mM calcium chloride, 10 μM zinc sulfate, and 0.05% PLURONIC F-68), then mixing 90 μL of a TACE enzyme solution prepared with an assay buffer A (50 mM tris-hydrochloric acid buffer (pH 7.5) including 200 mM sodium chloride, 5 mM calcium chloride, 10 μM zinc sulfate, and 2 mg/mL bovine serum albumin) and reacting at 37° C. for 1.5 hours. Enzyme activity was then determined by measuring with a fluorescence intensity meter (Labsystems, Fluoroskan Ascent) at an excitation wavelength of 355 nm and a measurement wavelength of 460 nm. The 50% inhibitory concentration (IC50) of the test substances was calculated by comparing enzyme activity in the presence and the absence of the test substance to determine the inhibition rate. Further, test substances having an IC50 strength of less than 100 nM were evaluated as “A”, and test substances having an IC50 strength of 100 nM or more were evaluated as “B”.
# T1 sequence (P78536 215-824): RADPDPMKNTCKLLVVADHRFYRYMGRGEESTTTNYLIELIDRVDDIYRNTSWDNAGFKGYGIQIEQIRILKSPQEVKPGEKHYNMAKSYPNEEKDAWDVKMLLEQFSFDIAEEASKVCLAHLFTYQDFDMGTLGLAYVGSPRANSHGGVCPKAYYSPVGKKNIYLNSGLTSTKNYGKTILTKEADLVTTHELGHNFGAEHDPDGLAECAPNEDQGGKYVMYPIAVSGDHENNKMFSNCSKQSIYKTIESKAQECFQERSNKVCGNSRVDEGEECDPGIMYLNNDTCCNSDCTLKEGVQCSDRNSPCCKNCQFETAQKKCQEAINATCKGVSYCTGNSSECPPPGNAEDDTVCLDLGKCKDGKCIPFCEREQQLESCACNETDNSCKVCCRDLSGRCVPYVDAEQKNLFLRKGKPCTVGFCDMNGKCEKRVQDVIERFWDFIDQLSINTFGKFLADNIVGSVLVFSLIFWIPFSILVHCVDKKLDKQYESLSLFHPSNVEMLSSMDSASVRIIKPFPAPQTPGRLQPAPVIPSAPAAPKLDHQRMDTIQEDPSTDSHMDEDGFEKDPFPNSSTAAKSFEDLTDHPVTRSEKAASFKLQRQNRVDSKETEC
structure (smiles),measurement,value
Cc1cccn(CC2(c3cccc(-c4cccnc4)c3)NC(=O)NC2=O)c1=O (racemic) [Compound I-62],IC50,< 100 nM
Cc1cccn(CC2(c3ccc(CCc4ccccc4)cc3)NC(=O)NC2=O)c1=O (racemic) [Compound I-107],IC50,< 100 nM
"Cc1cccn(CC2(c3ccc(Oc4ccccc4)cc3)NC(=O)NC2=O)c1=O (racemic) [Compound I-9, 5-[(3-methyl-2-oxopyridin-1(2H)-yl)methyl]-5-(4-phenoxyphenyl)imidazolidine-2,4-dione]",IC50,< 100 nM
"Cc1cccn(CC2(c3cc4ccccc4o3)NC(=O)NC2=O)c1=O (racemic) [Compound I-6, 5-(benzofuran-2-yl)-5-[(3-methyl-2-oxopyridin-1(2H)-yl)methyl]imidazolidine-2,4-dione]",IC50,< 100 nM
Cc1cccn(CC2(c3cccc(-c4ccccn4)c3)NC(=O)NC2=O)c1=O (racemic) [Compound I-94],IC50,< 100 nM
"Cc1cccn(CC2(c3ccc(-c4nn[nH]n4)cc3)NC(=O)NC2=O)c1=O (racemic) [Compound I-42, 5-[4-(2H-tetrazol-5-yl)phenyl]-5-[(3-methyl-2-oxopyridin-1(2H)-yl)methyl]imidazolidine-2,4-dione]",IC50,< 100 nM
O=C1NC(=O)C(Cn2cccc(Br)c2=O)(c2ccccc2)N1 (racemic) [Compound I-139],IC50,< 100 nM
O=C1NC(=O)C(Cn2ccccc2=O)(c2ccc(F)c(F)c2)N1 (racemic) [Compound I-155],IC50,< 100 nM
COc1ccc(-c2ccc(C3(Cn4cccc(C)c4=O)NC(=O)NC3=O)cc2)cc1 (racemic) [Compound I-72],IC50,< 100 nM
"Cc1cccn(CC2(c3ccccc3)NC(=O)NC2=O)c1=O (racemic) [Compound I-1, 5-[(3-methyl-2-oxopyridin-1(2H)-yl)methyl]-5-phenyl-imidazolidine-2,4-dione]",IC50,< 100 nM
N#Cc1ccc(C2(Cn3cccc(F)c3=O)NC(=O)NC2=O)cc1 (racemic) [Compound I-134],IC50,< 100 nM
Cc1cccn(CC2(c3ccc(OC(F)F)cc3)NC(=O)NC2=O)c1=O (racemic) [Compound I-78],IC50,< 100 nM
Cc1cccn(CC2(c3cccc(OCc4ccccc4)c3)NC(=O)NC2=O)c1=O (racemic) [Compound I-58],IC50,< 100 nM
COc1cccc(-c2ccc(C3(Cn4cccc(C)c4=O)NC(=O)NC3=O)cc2)c1 (racemic) [Compound I-73],IC50,< 100 nM
Cc1cccn(CC2(c3ccc(Oc4ccccc4F)cc3)NC(=O)NC2=O)c1=O (racemic) [Compound I-86],IC50,< 100 nM
"Cc1cccn(CC2(c3cc(F)c(F)c(F)c3)NC(=O)NC2=O)c1=O (racemic) [Compound I-44, 5-[(3-methyl-2-oxopyridin-1(2H)-yl)methyl]-5-(3,4,5-trifluorophenyl)imidazolidine-2,4-dione]",IC50,< 100 nM
Cc1cccn(CC2(c3ccc(F)c(Cl)c3)NC(=O)NC2=O)c1=O (racemic) [Compound I-126],IC50,< 100 nM
"Cc1cccn(CC2(c3cccc(O)c3)NC(=O)NC2=O)c1=O (racemic) [Compound I-54, 5-(3-hydroxyphenyl)-5-[(3-methyl-2-oxopyridin-1(2H)-yl)methyl]imidazolidine-2,4-dione]",IC50,≥ 100 nM
Cc1cccn(CC2(c3ccc4c(c3)CCCC4)NC(=O)NC2=O)c1=O (racemic) [Compound I-77],IC50,< 100 nM
O=C1NC(=O)C(Cn2cccc(C(F)(F)F)c2=O)(c2ccccc2)N1 (racemic) [Compound I-140],IC50,< 100 nM
Cc1cccn(CC2(c3ccc(Oc4cccnc4)c(F)c3)NC(=O)NC2=O)c1=O (racemic) [Compound I-122],IC50,< 100 nM
O=C1NC(=O)C(Cn2ccccc2=O)(c2ccc(Cc3ccccc3)cc2)N1 (racemic) [Compound I-156],IC50,≥ 100 nM
"Cc1cccn(CC2(c3ccc(F)cc3)NC(=O)NC2=O)c1=O (racemic) [Compound I-15, 5-(4-fluorophenyl)-5-[(3-methyl-2-oxopyridin-1(2H)-yl)methyl]imidazolidine-2,4-dione]",IC50,< 100 nM
Cc1cccn(CC2(c3ccc(Oc4cccc(C(F)(F)F)c4)cc3)NC(=O)NC2=O)c1=O (racemic) [Compound I-100],IC50,< 100 nM
"Cc1ccccc1Oc1ccc(C2(Cn3cccc(C)c3=O)NC(=O)NC2=O)cc1 (racemic) [Compound I-35, 5-[(3-methyl-2-oxopyridin-1(2H)-yl)methyl]-5-[4-(o-tolyloxy)phenyl]imidazolidine-2,4-dione]",IC50,< 100 nM
"COc1ccc(C2(Cn3cccc(C)c3=O)NC(=O)NC2=O)cc1F (racemic) [Compound I-14, 5-(3-fluoro-4-methoxyphenyl)-5-[(3-methyl-2-oxopyridin-1(2H)-yl)methyl]imidazolidine-2,4-dione]",IC50,< 100 nM
"O=C1NC(=O)C(Cn2cccc(F)c2=O)(c2ccc(F)cc2)N1 (racemic) [Compound I-48, 5-[(3-fluoro-2-oxopyridin-1(2H)-yl)methyl]-5-(4-fluorophenyl)-imidazolidine-2,4-dione]",IC50,< 100 nM
COc1ccccc1C1(Cn2cccc(C)c2=O)NC(=O)NC1=O (racemic) [Compound I-60],IC50,≥ 100 nM
COc1cc(C)c(Cl)cc1C1(Cn2cccc(C)c2=O)NC(=O)NC1=O (racemic) [Compound I-70],IC50,≥ 100 nM
"Cc1cccn(CC2(c3cccc(F)c3)NC(=O)NC2=O)c1=O (racemic) [Compound I-28, 5-(3-fluorophenyl)-5-[(3-methyl-2-oxopyridin-1(2H)-yl)methyl]imidazolidine-2,4-dione]",IC50,< 100 nM
COc1ccc(C2(Cn3cccc(F)c3=O)NC(=O)NC2=O)cc1 (racemic) [Compound I-133],IC50,< 100 nM
COc1cccn(CC2(c3ccccc3)NC(=O)NC2=O)c1=O (racemic) [Compound I-143],IC50,≥ 100 nM
Cc1cc(C2(Cn3cccc(C)c3=O)NC(=O)NC2=O)ccc1OC1CCCCC1 (racemic) [Compound I-131],IC50,< 100 nM
Cc1cccn(CC2(c3ccc(Oc4cc(F)cc(F)c4)cc3)NC(=O)NC2=O)c1=O (racemic) [Compound I-99],IC50,< 100 nM
O=C1NC(=O)C(Cn2cccc(Br)c2=O)(c2ccc(F)c(F)c2)N1 (racemic) [Compound I-147],IC50,< 100 nM
COc1ccc(C)cc1C1(Cn2cccc(C)c2=O)NC(=O)NC1=O (racemic) [Compound I-76],IC50,≥ 100 nM
Cc1cccn(CC2(c3cccc(F)c3F)NC(=O)NC2=O)c1=O (racemic) [Compound I-153],IC50,< 100 nM
"COc1ccc(C2(Cn3cccc(C)c3=O)NC(=O)NC2=O)cc1OC (racemic) [Compound I-16, 5-(3,4-dimethoxyphenyl)-5-[(3-methyl-2-oxopyridin-1(2H)-yl)methyl]imidazolidine-2,4-dione]",IC50,< 100 nM
Cc1cccn(CC2(c3ccc(Sc4ccccc4)c(F)c3)NC(=O)NC2=O)c1=O (racemic) [Compound I-103],IC50,< 100 nM
Cc1cccn(CC2(c3ccc(Oc4ccc(F)c(F)c4)cc3)NC(=O)NC2=O)c1=O (racemic) [Compound I-98],IC50,< 100 nM
"COc1cc(C2(Cn3cccc(C)c3=O)NC(=O)NC2=O)ccc1F (racemic) [Compound I-12, 5-(4-fluoro-3-methoxyphenyl)-5-[(3-methyl-2-oxopyridin-1(2H)-yl)methyl]imidazolidine-2,4-dione]",IC50,< 100 nM
Cc1cccn(CC2(c3ccc(Oc4ccc(F)cc4F)cc3)NC(=O)NC2=O)c1=O (racemic) [Compound I-97],IC50,< 100 nM
Cc1cccn(CC2(c3ccc(C(C)C)cc3)NC(=O)NC2=O)c1=O (racemic) [Compound I-117],IC50,< 100 nM
Cc1cccn(CC2(c3ccc(C#Cc4ccccc4)cc3)NC(=O)NC2=O)c1=O (racemic) [Compound I-106],IC50,< 100 nM
Cc1cccn(CC2(c3ccc(Oc4cccc(F)c4)c(F)c3)NC(=O)NC2=O)c1=O (racemic) [Compound I-112],IC50,< 100 nM
"Cc1cccn(CC2(c3ccc4sccc4c3)NC(=O)NC2=O)c1=O (racemic) [Compound I-23, 5-(benzo[b]thiophen-5-yl)-5-[(3-methyl-2-oxopyridin-1(2H)-yl)methyl]imidazolidine-2,4-dione]",IC50,< 100 nM
Cc1cccn(CC2(c3ccc(C(F)(F)F)cc3)NC(=O)NC2=O)c1=O (racemic) [Compound I-89],IC50,< 100 nM
"O=C1NC(=O)C(Cn2cccc(Cl)c2=O)(c2cc3ccccc3o2)N1 (racemic) [Compound I-51, 5-(benzofuran-2-yl)-5-[(3-chloro-2-oxopyridin-1(2H)-yl)methyl]imidazolidine-2,4-dione]",IC50,< 100 nM
"C=Cc1ccc(C2(Cn3cccc(C)c3=O)NC(=O)NC2=O)cc1 (racemic) [Compound I-43, 5-[(3-methyl-2-oxopyridin-1(2H)-yl)methyl]-5-(4-vinylphenyl)imidazolidine-2,4-dione]",IC50,< 100 nM
